# Measured values from ChEMBL document CHEMBL3272164, “Compounds with gastric antisecretory activity. 1. Phenoxyalkylamines” (J Med Chem, 1977).
# How the values were obtained:
# Rattus norvegicus [1] = experiment: Inhibition of histamine-induced gastric acid secretion in rat in perfused stomach preparation at 2.5 mg/kg, iv after 15 mins; assay type: functional; conditions: 0.25 h
# Rattus norvegicus [2] = experiment: Inhibition of histamine-induced gastric acid secretion in rat in perfused stomach preparation at 5 mg/kg, iv after 15 mins; assay type: functional; conditions: 0.25 h
# Rattus norvegicus [3] = experiment: Inhibition of histamine-induced gastric acid secretion in rat in perfused stomach preparation at 1.25 mg/kg, iv after 15 mins; assay type: functional; conditions: 0.25 h
# Rattus norvegicus [4] = experiment: Inhibition of histamine-induced gastric acid secretion in rat in perfused stomach preparation at 0.078 mg/kg, iv after 15 mins; assay type: functional; conditions: 0.25 h
# Rattus norvegicus [5] = experiment: Inhibition of histamine-induced gastric acid secretion in iv dosed rat in perfused stomach preparation measured after 15 mins; assay type: functional; conditions: 0.25 h
# Rattus norvegicus [6] = experiment: Inhibition of histamine-induced gastric acid secretion in po dosed rat in ligated stomach preparation administered 1 hr prior to the ligation of the pylorus; assay type: functional
# Rattus norvegicus [7] = experiment: Toxicity in rat at 5 mg/kg, iv; assay type: organism-based; set-up: dose 5 mg/kg, route intravenous; conditions: in vivo
SMILES,inhibition in vivo at 5 mg/kg (Rattus norvegicus [2]) [%],other results
c1ccc(OCCN2CCCCC2)c(CCC2CCCCC2)c1,–,inhibition in vivo at 2.5 mg/kg (Rattus norvegicus [1]): 50%
CC(C)N(CCOc1ccccc1CCC1CCCCC1)C(C)C,32,–
CCN(CC)CCOc1ccc(F)cc1CCC1CCCCC1,95,–
c1ccc(OCCN2CCCC2)c(CCC23CC4CC(CC(C4)C2)C3)c1,–,inhibition in vivo at 1.25 mg/kg (Rattus norvegicus [3]): 100%; inhibition in vivo at 0.078 mg/kg (Rattus norvegicus [4]): 83%
CN1CCN(CCOc2ccccc2CCC2CCCCC2)CC1,0,–
CN(C)CCCOc1ccccc1CCC1CCCCC1,42,–
CN/C(=N\CCSCc1nc[nH]c1C)NC#N [CIMETIDINE],–,ED50 (Rattus norvegicus [5]): 0.3 mg/kg; ED50 (Rattus norvegicus [6]): 21.5 mg/kg
CCN1CCCC(COc2ccccc2CCC2CCCCC2)C1 (centres undefined),57,–
CCCCCCc1ccccc1OCCN(CC)CC,48,–
CCCN(CCC)CCOc1ccccc1CCC1CCCCC1,62,–
CCCCCCCCCc1ccccc1OCCN(CC)CC,25,–
CCCCCC/C=C/c1ccccc1OCCN1CCCC1,50,–
CCN(CC)CCOc1ccc(Cl)cc1CCC1CCCCC1,75,–
CCCCC/C=C/c1ccccc1OCCN1CCCC1,71,–
CCCCCCCc1ccccc1OCCN(CC)CC,82,–
CN(C)CCOc1ccccc1CCC1CCCCC1,29,–
c1ccc(N2CCN(CCOc3ccccc3CCC3CCCCC3)CC2)cc1,0,–

SMILES,inhibition in vivo at 5 mg/kg (Rattus norvegicus [2]) [%],other results
c1ccc(OCCN2CCOCC2)c(CCC2CCCCC2)c1,10,–
CCN(CC)CCOc1ccccc1/C=C/C1CCCCC1,–,inhibition in vivo at 1.25 mg/kg (Rattus norvegicus [3]): 82%
C(=C/C12CC3CC(CC(C3)C1)C2)/c1ccccc1OCCN1CCCC1,–,inhibition in vivo at 0.078 mg/kg (Rattus norvegicus [4]): 65%
CCN(CC)CCCOc1ccccc1CCC1CCCCC1,66,–
CCN(CC)CCOc1ccc(OC)cc1CCC1CCCCC1,78,–
c1ccc(OCCN2CCCC2)c(CCC2CCCCC2)c1,95,–
CN(C)CCOc1ccccc1/C=C/C12CC3CC(CC(C3)C1)C2 (trans isomer),–,inhibition in vivo at 0.078 mg/kg (Rattus norvegicus [4]): 52%
CCCCCCCc1ccccc1OCCNCC.O=C(O)C(=O)O,–,Activity (Rattus norvegicus [7]): Toxic
C(=C\C1CCCCC1)/c1ccccc1OCCN1CCCC1,–,inhibition in vivo at 1.25 mg/kg (Rattus norvegicus [3]): 90%
CN1CCCCC1COc1ccccc1CCC1CCCCC1 (centres undefined),100,inhibition in vivo at 2.5 mg/kg (Rattus norvegicus [1]): 64%
CC(C)CN1CCN(CCOc2ccccc2CCC2CCCCC2)CC1,51,–
CCCCCCCc1cc(C)ccc1OCCN(CC)CC,61,–
CCN(CC)CCOc1ccccc1CCCC(C)(C)C,50,–
CCN(CC)CCOc1ccccc1CCC1CCCCC1,74,–
C(=C\C12CC3CC(CC(C3)C1)C2)/c1ccccc1OCCN1CCCC1.Cl,–,inhibition in vivo at 0.078 mg/kg (Rattus norvegicus [4]): 97%; ED50 (Rattus norvegicus [5]): 0.018 mg/kg; ED50 (Rattus norvegicus [6]): 1.5 mg/kg
CCN(CC)CCOc1ccc(C(C)=O)cc1CCC1CCCCC1,36,–
CCCCCCCc1ccccc1OCCCNC(C)C.O=C(O)C(=O)O,–,Activity (Rattus norvegicus [7]): Toxic
